Laboratory results from US5846942A, “Cholecystokinin antagonists, their preparation and therapeutic use” (Warner-Lambert Company, priority 1996, dated 1998).

Biological target: T1, Central CCK Receptors (Mus musculus, UniProt P56481)
T1 construct: from tissue; host or cells: cerebral cortex membranes of male CFLP mice (30-40 g)
T1 sequence (P56481 1-453): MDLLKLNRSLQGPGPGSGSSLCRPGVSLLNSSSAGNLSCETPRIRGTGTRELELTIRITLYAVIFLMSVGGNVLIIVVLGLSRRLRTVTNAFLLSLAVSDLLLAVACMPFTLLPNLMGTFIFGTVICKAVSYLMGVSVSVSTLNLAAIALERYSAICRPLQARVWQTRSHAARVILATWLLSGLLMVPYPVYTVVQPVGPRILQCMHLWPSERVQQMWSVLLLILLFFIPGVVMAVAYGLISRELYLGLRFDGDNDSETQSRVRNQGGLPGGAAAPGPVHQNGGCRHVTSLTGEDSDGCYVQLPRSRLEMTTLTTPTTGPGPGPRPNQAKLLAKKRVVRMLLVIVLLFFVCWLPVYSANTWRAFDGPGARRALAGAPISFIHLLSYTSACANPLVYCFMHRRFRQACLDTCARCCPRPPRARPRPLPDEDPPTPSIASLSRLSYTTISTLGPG
Experiment: Binding to central CCK receptors, displacement of tritiated pentagastrin from cerebral cortical membranes of male CFLP mice
Set-up: species or system mouse (male CFLP)
Conditions: cerebral cortexes taken from male CFLP mice; 2 nM tritiated-pentagastrin
Procedure: The biological activity of compounds of the present invention was evaluated employing an initial screening test which rapidly and accurately measured the binding of the tested compound to known CCK receptor sites. […] (See Hays et al, Neuropeptides 1:53-62, 1980; and Satuer et al, Science 208:1155-1156, 1980).
In this screening test, the cerebral cortices taken from male CFLP mice weighing between 30-40 g were dissected on ice, weighed, and homogenized in 10 volumes of 50 mM Tris-HCl buffer (pH 7.4 at 0°-4° C.). The resulting suspension was centrifuged, the supernate was discarded, and the pellet was washed by resuspension in Tris-HCl buffer followed by recentrifugation. The final pellet was resuspended in 20 volumes of […] Hepes buffer (pH 7.2 at 23° C.) containing 130 mM NaCl, […] KCl, […] MgCl2, […] EDTA, 5 mg/mL bovine albumin, and bacitracin (0.25 mg/mL).
In saturation studies, cerebral cortical membranes were incubated at 23° C. for 120 minutes in a final volume of 500 μL of Hepes incubation buffer (pH 7.2) together with […] tritiated-pentagastrin (Amersham International, England).
In the displacement experiments, membranes were incubated with a single concentration (2 nM) of ligand, together with increasing concentrations (10^-11 to […]) of competitive test compound. In each case, the nonspecific binding was defined as that persisting in the presence of the unlabeled octapeptide CCK26-33 (10^-6 M)
Following incubation, radioactivity bound to membranes was separated from that free in solution by rapid filtration through Whatman GF/B filters and washed three times with 4 mL of ice cold Tris-HCl buffer. Filters from samples incubated with tritiated-pentagastrin were placed in polyethylene vials with 4 mL of scintillation cocktail, and the radioactivity was estimated by liquid scintillation spectrometry (efficiency 47-52%).
Saturation curves for specific tritiated- pentagastrin binding to mouse cortical membranes were analyzed by the methods of Scatchard (Ann. New York Acad. Sci. 51:660-672, 1949, and Hill (J. Physiol. 40:IV-VIII, 1910), to provide estimates for the maximum number of binding sites (Bmax) and the equilibrium dissociation constant (Ka).
In displacement experiments, inhibition curves were analyzed by either logit-log plots or the iterative curve fitting computer program ALLFIT (DeLean, Munson and Redbard, 1978) to provide estimates of the IC50 and nH (apparent Hill coefficient) values).
The inhibition constant (Ki) of the test compound was then calculated according to the Cheng-Prusoff equation: [formula] where [L] is the concentration of radiolabel and Ka is the equilibrium dissociation constant.

Compound | Ki [nM]
CC(=O)OC[C@H](Cc1ccccc1)NC[C@@](C)(Cc1c[nH]c2ccccc12)NC(=O)OC1C2CC3CC(C2)CC1C3 (relative stereo) [Example 7, [R-(R*,S*)]-β-[[2-(1H-indol-3-ylmethyl)-2-[[tricyclo-[3.3.1.1^3,7]dec-2-yloxvcarbonyl]amino]propyl]amino]-benzenepropanol acetate] | 374
C[C@@](Cc1c[nH]c2ccccc12)(NC(=O)OC1C2CC3CC(C2)CC1C3)C(=O)NCCC(=O)N[C@H](CO)Cc1ccccc1 (relative stereo) [Example 24, Carbamic acid, [1-(1H-indol-3-ylmethyl)-2-[[3-[[1-hydroxymethyl)-2-iphenylethyl]amino]-3-oxopropyl]-amino]-1-methyl-2-oxoethyl]-, tricyclo[3.3.1.1^3,7]dec-2-ylester, [S-(R*,R*)]-] | 1100
O=C(N[C@@H](CN[C@H](CO)Cc1ccccc1)Cc1c[nH]c2ccccc12)OC1C2CC3CC(C2)CC1C3 (stereo partly drawn) [Example 1, Tricyclo[3.3.1.1^3,7]dec-2-yl[S-(R)]-[2-[[1 - (hydroxy-methyl)-2-phenylethyl]amino]-1-(1H-indol-3-ylmethyl)ethyl]carbamate] | 11500
O=C(N[C@H](CN[C@H](CO)Cc1ccccc1)Cc1c[nH]c2ccccc12)OC1C2CC3CC(C2)CC1C3 (some centres unmarked) [Example 2] | 1120
CC(CNCC(O)c1ccccc1)(Cc1c[nH]c2ccccc12)NC(=O)OC1C2CC3CC(C2)CC1C3 (centres unmarked) [Example 5, Tricyclo[3.3.1.1^3,7]dec-2-yl [1-[(2-hydroxy-2-phenyl-ethyl)amino]-3-(1H-indol-3-yl)-2-methylprop-2-yl]-carbamate] | 220
C[C@](CN[C@H](CO)Cc1ccccc1)(Cc1c[nH]c2ccccc12)NC(=O)OC1C2CC3CC(C2)CC1C3 (stereo partly drawn) [Example 6, Tricyclo[3.3.1.1^3,7]dec-2-yl[R-(R*,S*)]-1-[[1(hydroxy-methyl)-2-phenylethyl]amino]-3-(1H-indol-3-yl)-2-methylprop-2-ylcarbamate] | 200
CC(=O)N(C[C@@](C)(Cc1c[nH]c2ccccc12)NC(=O)OC1C2CC3CC(C2)CC1C3)[C@H](CO)Cc1ccccc1 (stereo partly drawn) [Example 8, Tricyclo[3.3.1.1^3,7]dec-2-yl[R-(R*,S*)]-[acetyl[1-(hydroxymethyl)-2-phenylethyl]amino]-2-(1H-indol-3-ylmethyl)prop-2-ylcarbamate] | 318
C[C@](Cc1c[nH]c2ccccc12)(NC(=O)OC1C2CC3CC(C2)CC1C3)C(=S)NCCc1ccccc1 (some centres unmarked) [Example 9] | 808
C[C@](CC(=O)OCc1ccccc1)(Cc1c[nH]c2ccccc12)NC(=O)OC1C2CC3CC(C2)CC1C3 (some centres unmarked) [Example 17] | 17
C[C@](CNC(=O)CCCc1ccccc1)(Cc1c[nH]c2ccccc12)NC(=O)OC1C2CC3CC(C2)CC1C3 (stereo partly drawn) [Example 19, Carbamic acid, [1-(1H-indol-3-ylmethyl)-1-methyl-2-[(1-oxo-4-phenylbutyl)amino]ethyl]-, tricyclo-[3.3.1.1^3,7]dec-2-yl ester (R)-] | 353
C[C@](CNC(=O)c1ccccc1)(Cc1c[nH]c2ccccc12)NC(=O)OC1C2CC3CC(C2)CC1C3 (stereo partly drawn) [Example 20, Carbamic acid, [2-(benzoylamino)-1-(1H-indol-3-ylmethyl)-1-methylethyl]-, tricyclo[3.3.1.1^3,7]dec-2-yl ester, (R)-] | 493
C[C@](CNC(=O)CCc1ccccc1)(Cc1c[nH]c2ccccc12)NC(=O)OC1C2CC3CC(C2)CC1C3 (some centres unmarked) [Example 21] | > 100
C[C@](CNC(=O)Cc1ccccc1)(Cc1c[nH]c2ccccc12)NC(=O)OC1C2CC3CC(C2)CC1C3 (stereo partly drawn) [Example 22, Carbamic acid, [1-(1H-indol-3-ylmethyl)-1-methyl-2-[(2-phenylacetyl)amino]ethyl]-, tricyclo[3.3.1.1^3,7]-dec-2-yl ester. (R)-] | 704
C[C@](Cc1c[nH]c2ccccc12)(NC(=O)OC1C2CC3CC(C2)CC1C3)C(=O)NCCC(=O)N[C@H](CO)Cc1ccccc1 (stereo partly drawn) [Example 23, Carbamic acid, [2-[[3-[[1-(hydroxymethyl)-2-phenyl-ethyl]amino]-3-oxopropyl]amino]-1-(1H-indol-3-ylmethyl)-1-methyl-2-oxoethyl]-, tricyclo-[3.3.1.1^3,7]dec-2-vl ester. [R-(R*.S*)]-] | 800
C[C@](Cc1c[nH]c2ccccc12)(NC(=O)OC1C2CC3CC(C2)CC1C3)C(=O)NCCC(=O)N[C@H](Cc1ccccc1)C(N)=O (stereo partly drawn) [Example 25, D-Phenylalanamide, α-methyl-N-[(tricyclo[3.3.1.1^3,7]-dec-2-yloxv)carbonyl]-D-tryotophyl-β-alanyl-] | 550
C[C@](Cc1c[nH]c2ccccc12)(NC(=O)OC1C2CC3CC(C2)CC1C3)C(=O)NCCC(=O)N[C@@H](Cc1ccccc1)C(N)=O (stereo partly drawn) [Example 26, L-Phenylalaninamide, α-methyl-N-[(tricyclo [3.3.1.1^3,7]-dec-2-yloxy)carbonyl]-D-tryptophvl-β-alanyl-] | 92
C[C@@](Cc1c[nH]c2ccccc12)(NC(=O)OC1C2CC3CC(C2)CC1C3)C(=O)NCCC(=O)N[C@@H](Cc1ccccc1)C(N)=O (stereo partly drawn) [Example 27, L-Phenylalaninamide α-methyl-N-[(tricyclo[3.3.1.1^3,7]-dec-2-yloxy)carbonyl]-L-tryptophy-β-alanyl-] | 910
C[C@@](Cc1c[nH]c2ccccc12)(NC(=O)OC1C2CC3CC(C2)CC1C3)C(=O)NCCC(=O)N[C@H](Cc1ccccc1)C(N)=O (some centres unmarked) [Example 28] | 1400
COC(=O)[C@@H](Cc1ccccc1)NC(=O)CCNC(=O)[C@@](C)(Cc1c[nH]c2ccccc12)NC(=O)OC1C2CC3CC(C2)CC1C3 (stereo partly drawn) [Example 29, 12-Oxa-2,5,9-triazatridecanoic acid, 3-(1H-indol-3-ylmethyl)-3-methyl-4.8.11-trioxo-10-(phenvlmethyl)-, tricyclo[3.3.1.1^3,7]dec-2-vl ester, [R-(R*,R*)]-] | 240
C[C@](Cc1c[nH]c2ccccc12)(NC(=O)OC1C2CC3CC(C2)CC1C3)C(=O)NCCC(=O)N[C@@H](Cc1ccccc1)C(=O)OCc1ccccc1 (stereo partly drawn) [Example 30, L-Phenylalanine,N-[N-[α-methyl-N-[(tricyclo[3.3.1.1^3,7]dec-2-yloxy)carbonyl]-d-tryotoohyl]-β-alanyl]-phenylmethyl ester] | > 10000
C[C@@](Cc1c[nH]c2ccccc12)(NC(=O)OC1C2CC3CC(C2)CC1C3)C(=O)NCCC(=O)N[C@@H](Cc1ccccc1)C(=O)OCc1ccccc1 (stereo partly drawn) [Example 31, Propanoic acid, 2-[[3-[[3-(1H-indol-3-yl)-2-methyl-1-oxo-2-[[(tricyclo[3.3.1.1^3,7]dec-2-yloxy)carbonyl]amino]propyl]amino]-1-oxopropyl]-amino]-3-phenyl-, phenylmethyl ester, [S-(R*,R*)]-] | 1200
C[C@](Cc1c[nH]c2ccccc12)(NC(=O)OC1C2CC3CC(C2)CC1C3)C(=O)NCCC(=O)N[C@H](Cc1ccccc1)C(=O)O (stereo partly drawn) [Example 32, D-Phenylalanine, N-[N-[α-methyl-N-[(tricyclo-[3.3.1.1^3,7]dec-2-yloxy)carbonyl]-D-tryptophyl]-β-alanyl]-] | 103
C[C@](Cc1c[nH]c2ccccc12)(NC(=O)OC1C2CC3CC(C2)CC1C3)C(=O)NCCC(=O)N[C@@H](Cc1ccccc1)C(=O)O (stereo partly drawn) [Example 33, S-Phenylalanine N-[N-[α-methyl-N-[(tricyclo-[3.3.1.1^3,7]dec-2-yloxy)carbonyl]-R-tryptophyl]-β-alanyl]] | 22
